Structures can show the parent of a compound that is named as a salt. Calls of active or inactive are those of the source.
How the values were obtained:
[1] = biological target: E3 ubiquitin-protein ligase Mdm2 (Homo sapiens, UniProt Q00987); assay: enhancers of MDM2-luciferase reporter signal, concentration-effect titration, project on inhibitors of MDM2 ubiquitin ligase, cellular assay, luminescent readout, 384-well plate format (AID 1394); assay type: functional;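 note: MDM2 E3 inhibitors raise luminescence so EC50 is for signal enhancement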
Chain of E3 ubiquitin-protein ligase Mdm2 (Q00987 whole entry): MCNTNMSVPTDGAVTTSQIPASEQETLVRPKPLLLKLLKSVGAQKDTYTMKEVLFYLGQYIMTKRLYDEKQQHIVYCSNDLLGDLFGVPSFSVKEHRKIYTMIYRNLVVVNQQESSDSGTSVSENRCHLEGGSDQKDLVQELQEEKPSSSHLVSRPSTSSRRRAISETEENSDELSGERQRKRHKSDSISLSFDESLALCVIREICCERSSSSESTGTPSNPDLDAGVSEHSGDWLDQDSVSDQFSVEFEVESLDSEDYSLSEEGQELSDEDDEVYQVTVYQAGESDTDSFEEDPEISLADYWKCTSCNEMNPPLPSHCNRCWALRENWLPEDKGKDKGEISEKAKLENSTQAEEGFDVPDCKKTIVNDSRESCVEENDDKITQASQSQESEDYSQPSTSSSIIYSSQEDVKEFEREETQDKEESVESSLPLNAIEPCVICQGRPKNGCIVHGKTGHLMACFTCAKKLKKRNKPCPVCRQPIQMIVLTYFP

Vero = assay: West Nile virus antiviral activity, cell-based, CPE readout (AID 1621); assay type: functional; settings: Chlorocebus sabaeus
[2] = Luminescence Cell-Based Dose Response to Identify Activators of 5'UTR Stem-Loop Driven Prion Protein mRNA Translation in H4-C Neuroglioblastoma Cells. [Related pubchem assays: 1829 (Project Summary), 1814 (Primary HTS)]; assay type: functional
[3] = Luminescence Cell-Based Dose Response HTS to Identify Activators of Luciferase Translation or Activity in H4 […] Cells. [Related pubchem assays: 1829 (Project Summary), 1814 (Primary HTS)]; assay type: functional
H4 = assay: Luminescence Cell-Based Dose Response HTS to Identify Activators of 5'UTR Stem-Loop Driven Prion Protein mRNA Translation in H4 Neuroglioblastoma Cells. [Related pubchem assays: 1829 (Project Summary), 1814 (Primary HTS)]; assay type: functional; settings: Homo sapiens
[4] = Luminescence Cell-Based Dose Response to Identify Activators of Luciferase Translation or Activity in H4-C Neuroglioblastoma Cells. [Related pubchem assays: 1829 (Project Summary), 1814 (Primary HTS)]; assay type: functional
[5] = biological target: Potassium voltage-gated channel subfamily KQT member 2 (Rattus norvegicus, UniProt O88943, W236L); assay: KCNQ2 channel potentiators, dose response, mechanism study for KCNQ2 potentiator project, cell-based, automated electrophysiology (AID 2603); assay type: functional
Chain of Potassium voltage-gated channel subfamily KQT member 2 (O88943 whole entry W236L): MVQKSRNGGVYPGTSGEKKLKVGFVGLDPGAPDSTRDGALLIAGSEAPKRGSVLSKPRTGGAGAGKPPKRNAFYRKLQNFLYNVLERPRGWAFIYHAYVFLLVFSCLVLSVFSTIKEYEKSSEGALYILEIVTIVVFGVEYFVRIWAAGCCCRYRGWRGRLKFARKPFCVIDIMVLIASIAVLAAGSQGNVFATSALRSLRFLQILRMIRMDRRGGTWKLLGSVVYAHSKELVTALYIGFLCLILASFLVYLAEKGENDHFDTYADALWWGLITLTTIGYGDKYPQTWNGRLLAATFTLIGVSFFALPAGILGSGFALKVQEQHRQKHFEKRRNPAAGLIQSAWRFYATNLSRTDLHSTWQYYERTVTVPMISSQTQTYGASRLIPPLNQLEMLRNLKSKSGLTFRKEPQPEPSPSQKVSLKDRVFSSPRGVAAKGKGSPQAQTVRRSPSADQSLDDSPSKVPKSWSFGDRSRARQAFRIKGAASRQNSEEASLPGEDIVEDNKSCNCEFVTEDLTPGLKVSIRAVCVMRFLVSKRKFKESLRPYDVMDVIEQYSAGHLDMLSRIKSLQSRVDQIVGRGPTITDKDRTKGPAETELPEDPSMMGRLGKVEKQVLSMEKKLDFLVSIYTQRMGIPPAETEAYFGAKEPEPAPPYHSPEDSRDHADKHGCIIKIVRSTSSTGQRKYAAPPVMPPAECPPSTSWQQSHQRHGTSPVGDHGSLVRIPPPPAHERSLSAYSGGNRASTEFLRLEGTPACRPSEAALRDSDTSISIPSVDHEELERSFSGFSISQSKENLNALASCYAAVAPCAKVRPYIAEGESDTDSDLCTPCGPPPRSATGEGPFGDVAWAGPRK

[6] = Luminescence Cell-Based Dose Confirmation to Identify Activators of 5'UTR Stem-Loop Driven Alpha-Synuclein mRNA Translation in H4 Neuroglioblastoma Cells. [Related pubchem assays: 1829 (Project Summary), 1814 (Primary HTS)]; assay type: functional
[7] = Plasmodium falciparum Dd2 Sybr green parasite growth Measured in Cell-Based and Microorganism Combination System Using Plate Reader - 2153-01_Inhibitor_Dose_DryPowder_Activity_Set10.; assay type: functional
[8] = biological target: T1, Heat shock factor protein 1 (Mus musculus, UniProt P38532); assay: inhibition of MG132-induced HSE-luciferase signal, confirmation, cell-based, NIH3T3, luminescence, dose retest (AID 2382); assay type: functional;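 note: NIH3T3 fibroblasts with HSF1-driven luciferase reporter stressed by proteasome inhibitor MG132; luminescence from HSF1-driven luciferase expression after 8 hours of MG132 stress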
T1 sequence (P38532 whole entry): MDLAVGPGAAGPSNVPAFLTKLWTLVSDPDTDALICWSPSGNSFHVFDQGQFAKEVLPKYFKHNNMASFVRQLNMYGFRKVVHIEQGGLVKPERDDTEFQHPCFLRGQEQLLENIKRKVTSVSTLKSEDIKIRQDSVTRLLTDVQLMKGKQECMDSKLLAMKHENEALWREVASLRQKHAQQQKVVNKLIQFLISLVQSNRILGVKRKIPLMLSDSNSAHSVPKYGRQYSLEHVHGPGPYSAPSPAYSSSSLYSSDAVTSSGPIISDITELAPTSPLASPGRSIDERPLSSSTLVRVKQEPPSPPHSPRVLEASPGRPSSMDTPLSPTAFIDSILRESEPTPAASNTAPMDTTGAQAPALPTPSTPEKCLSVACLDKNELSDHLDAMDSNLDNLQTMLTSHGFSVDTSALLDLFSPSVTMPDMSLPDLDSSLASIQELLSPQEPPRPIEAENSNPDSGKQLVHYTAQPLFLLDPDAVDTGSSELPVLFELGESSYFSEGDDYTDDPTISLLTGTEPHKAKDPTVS

Oxytocin receptor = Oxytocin receptor (Homo sapiens, UniProt P30559); assay: Counterscreen for vasopressin 1 receptor (V1R) agonists: Fluorescence-based cell-based high throughput dose response assay for agonists of the Oxytocin Receptor (OXTR). [Related pubchem assays: 2435 (Primary screen (OXTR agonists in singlicate)), 434964 (Confirmation screen (V1R agonists in triplicate)), 434969 (Counterscreen (OXTR agonists in …; assay type: functional
Chain of Oxytocin receptor (P30559 whole entry): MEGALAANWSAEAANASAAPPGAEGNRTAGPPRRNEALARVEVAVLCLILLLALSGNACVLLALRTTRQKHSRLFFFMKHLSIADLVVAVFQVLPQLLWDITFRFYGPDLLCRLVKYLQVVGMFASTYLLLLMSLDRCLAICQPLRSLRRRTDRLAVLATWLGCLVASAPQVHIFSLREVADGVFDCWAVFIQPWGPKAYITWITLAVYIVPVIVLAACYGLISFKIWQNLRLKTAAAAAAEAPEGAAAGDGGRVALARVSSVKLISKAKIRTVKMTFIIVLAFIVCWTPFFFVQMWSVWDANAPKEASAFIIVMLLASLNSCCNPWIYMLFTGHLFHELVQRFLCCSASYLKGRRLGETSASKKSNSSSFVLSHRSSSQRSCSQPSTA

Vasopressin V1a receptor = Vasopressin V1a receptor (Homo sapiens, UniProt P37288); assay: Fluorescence-based cell-based high throughput dose response screening assay for agonists of the vasopressin 1 receptor (V1R).; assay type: functional
Chain of Vasopressin V1a receptor (P37288 whole entry): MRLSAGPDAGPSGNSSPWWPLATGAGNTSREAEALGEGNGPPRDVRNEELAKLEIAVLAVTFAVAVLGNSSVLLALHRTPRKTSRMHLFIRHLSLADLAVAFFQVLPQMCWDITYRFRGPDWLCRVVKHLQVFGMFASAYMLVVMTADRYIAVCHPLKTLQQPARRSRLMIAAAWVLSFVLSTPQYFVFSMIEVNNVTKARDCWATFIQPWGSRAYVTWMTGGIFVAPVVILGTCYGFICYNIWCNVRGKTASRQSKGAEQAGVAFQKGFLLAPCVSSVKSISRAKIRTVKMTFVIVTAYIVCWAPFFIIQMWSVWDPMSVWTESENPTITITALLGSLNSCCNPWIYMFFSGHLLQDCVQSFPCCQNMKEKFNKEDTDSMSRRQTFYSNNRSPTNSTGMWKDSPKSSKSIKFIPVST

[9] = HeLa 2N DNA content increase, dose response, cell-based, IC50 (AID 1117349); assay type: functional
[10] = Dose-response inhibition of insulin secretion in a rat insulinoma line at 5 mM glucose (AID 1117331); assay type: functional, cell-based; settings: INS-1E
cells = assay type: functional, cell-based; settings: INS-1E
[11] = HeLa 4N DNA content increase, dose response, cell-based, IC50 (AID 1117351); assay type: functional
[12] = cytotoxicity in HEK-293T cells, dose response, cytotoxicity control for TCR NF-kB inhibitor project, luminescence, T-cell screen hits (AID 489026); assay type: functional, cell-based;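 note: cells exposed to compound about 14 hours before the viability readout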
Nonstructural protein 1 = Nonstructural protein 1 (Influenza A virus, UniProt Q194T2); assay type: functional, Influenza A virus (A/California/07/2009(H1N1))
Chain of Nonstructural protein 1 (Q194T2 whole entry): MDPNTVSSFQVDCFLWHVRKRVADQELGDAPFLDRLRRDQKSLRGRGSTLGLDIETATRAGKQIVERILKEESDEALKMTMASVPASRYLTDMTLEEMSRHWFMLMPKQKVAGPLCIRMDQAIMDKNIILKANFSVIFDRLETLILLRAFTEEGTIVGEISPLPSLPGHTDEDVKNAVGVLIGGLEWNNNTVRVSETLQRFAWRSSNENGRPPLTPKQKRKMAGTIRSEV

[13] = biological target: Dual specificity tyrosine-phosphorylation-regulated kinase 1A (Rattus norvegicus, UniProt Q63470); assay type: biochemical, Homo sapiens
[14] = Shn3 3'UTR reporter inhibitors, dose response, cell-based, Clone20 osteoblasts, firefly luciferase, cherry-picked (AID 624132); assay type: functional;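 note: firefly luciferase luminescence from reporter carrying the Shn3 3'UTR in osteoblasts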
P388/ADR = assay: cells; assay type: functional; settings: Mus musculus
[15] = HepG2 cell cytotoxicity, dose response, cytotoxicity control for Shn3 inhibitor project, CellTiter-Glo, cherry-picked (AID 624134); assay type: functional, cell-based
[16] = control 3'UTR Renilla luciferase suppression, dose response, counter-screen for Shn3 inhibitor project, cell-based, Clone20-Shn3RL, cherry-picked (AID 624133); assay type: functional
SN12K1 = assay: cells; assay type: functional; settings: Homo sapiens
P388 = assay: cells; assay type: functional; settings: Mus musculus
[17] = biological target: T2, Rac GTPase-activating protein 1 (Homo sapiens, UniProt Q9H0H5); assay: MgcRacGAP GTPase-activating activity inhibitors, confirmation, biochemical, ADP Hunter fluorescence, primary and confirmatory (AID 624330); assay type: functional
T2 sequence (Q9H0H5 whole entry): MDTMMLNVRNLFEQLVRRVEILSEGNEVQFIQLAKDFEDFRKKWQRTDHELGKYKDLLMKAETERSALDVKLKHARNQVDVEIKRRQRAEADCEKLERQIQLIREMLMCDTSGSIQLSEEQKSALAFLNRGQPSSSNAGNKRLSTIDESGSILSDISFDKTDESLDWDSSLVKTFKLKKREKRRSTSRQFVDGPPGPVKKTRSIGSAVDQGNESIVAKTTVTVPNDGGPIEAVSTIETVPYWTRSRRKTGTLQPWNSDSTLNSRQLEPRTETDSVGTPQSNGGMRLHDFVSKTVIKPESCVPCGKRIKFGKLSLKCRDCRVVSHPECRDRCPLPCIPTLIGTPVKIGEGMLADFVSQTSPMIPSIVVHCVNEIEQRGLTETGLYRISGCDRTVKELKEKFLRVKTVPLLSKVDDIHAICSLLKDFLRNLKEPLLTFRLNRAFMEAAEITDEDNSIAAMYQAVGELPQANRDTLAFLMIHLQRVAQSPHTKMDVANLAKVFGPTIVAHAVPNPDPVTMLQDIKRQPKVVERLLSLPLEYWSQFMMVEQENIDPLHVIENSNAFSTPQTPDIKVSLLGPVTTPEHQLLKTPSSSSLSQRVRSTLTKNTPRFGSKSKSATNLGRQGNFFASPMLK

[18] = biological target: T3, DNA repair protein RAD52 homolog (Homo sapiens, UniProt P43351); assay type: functional, biochemical
T3 sequence (P43351 whole entry): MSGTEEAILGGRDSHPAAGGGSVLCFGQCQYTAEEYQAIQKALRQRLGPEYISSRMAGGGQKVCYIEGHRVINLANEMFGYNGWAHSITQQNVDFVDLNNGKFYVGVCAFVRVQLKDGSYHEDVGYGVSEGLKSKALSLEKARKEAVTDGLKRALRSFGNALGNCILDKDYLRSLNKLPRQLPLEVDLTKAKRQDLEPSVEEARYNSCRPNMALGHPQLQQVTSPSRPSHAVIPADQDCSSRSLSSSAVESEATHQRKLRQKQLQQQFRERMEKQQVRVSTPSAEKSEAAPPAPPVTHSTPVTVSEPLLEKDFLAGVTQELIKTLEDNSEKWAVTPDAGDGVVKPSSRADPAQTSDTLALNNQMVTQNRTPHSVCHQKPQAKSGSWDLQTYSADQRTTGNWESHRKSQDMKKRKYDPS

Paired box protein Pax-8 = Paired box protein Pax-8 (Homo sapiens, UniProt Q06710); assay: inhibitors of PAX8-driven TPO luciferase reporter, dose response, RMG-I cells, cherry-pick (AID 687027); assay type: functional, cell-based;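 note: luciferase reporter driven by Pax8 target thyroperoxidase promoter measured by SteadyGlo luminescence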
Chain of Paired box protein Pax-8 (Q06710 whole entry): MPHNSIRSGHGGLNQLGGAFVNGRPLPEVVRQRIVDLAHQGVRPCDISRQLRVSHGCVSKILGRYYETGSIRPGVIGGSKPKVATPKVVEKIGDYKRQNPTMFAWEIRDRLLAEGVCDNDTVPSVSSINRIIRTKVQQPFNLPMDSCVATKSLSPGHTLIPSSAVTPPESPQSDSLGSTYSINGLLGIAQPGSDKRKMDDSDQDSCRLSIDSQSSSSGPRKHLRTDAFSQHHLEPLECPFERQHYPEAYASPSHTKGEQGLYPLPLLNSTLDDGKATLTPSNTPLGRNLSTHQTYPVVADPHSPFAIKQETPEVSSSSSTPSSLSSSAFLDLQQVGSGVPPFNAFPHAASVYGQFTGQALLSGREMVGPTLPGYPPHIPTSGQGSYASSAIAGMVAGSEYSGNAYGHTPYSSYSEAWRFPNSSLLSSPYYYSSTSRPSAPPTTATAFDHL

[19] = human group III sPLA2 inhibitors, dose response, biochemical, QFRET, IC50 (AID 743457);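 note: green fluorescence rise as the enzyme cleaves BODIPY PC-A2 in liposomes; potency for inhibition of the enzyme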
[20] = Concentration-dependent survival of SW480 colon cancer line, luminescence detection with CellTiter-Glo, half-maximal inhibitory concentration (AID 1117338); assay type: functional
[21] = RKO cell viability reduction, dose response, CellTiter-Glo luminescence (AID 1117322); assay type: functional
[22] = cytotoxicity toward HCT116 cells – cell-based, CellTiter-Glo luminescence, IC50, dose response (AID 1117332); assay type: functional; settings: HCT-116
[23] = SNU-C1 cell viability reduction, dose response, CellTiter-Glo luminescence (AID 1117323); assay type: functional, cell-based
[24] = THP-1 cell cytotoxicity, dose response, cytotoxicity control for Vif-APOBEC3G degradation inhibitor project, THP-1 cells (AID 1117359); assay type: functional; settings: Human immunodeficiency virus 1, THP-1
[25] = biological target: Glutathione-S-transferase (Schistosoma japonicum, UniProt Q26513); assay: biotin-GST/anti-GST TR-FRET signal inhibitors, dose response, artefact control for Vif-APOBEC3G degradation inhibitor project, biochemical (AID 1117362); assay type: functional
Chain of Glutathione-S-transferase (Q26513 whole entry): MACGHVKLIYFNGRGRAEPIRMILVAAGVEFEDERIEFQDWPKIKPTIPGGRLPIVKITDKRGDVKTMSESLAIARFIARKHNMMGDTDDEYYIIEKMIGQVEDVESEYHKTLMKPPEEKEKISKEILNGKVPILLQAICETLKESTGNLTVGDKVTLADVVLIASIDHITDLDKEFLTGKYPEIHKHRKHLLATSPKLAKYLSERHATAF

[26] = CellTiter-Glo luminescent dose response of DLD-1 viability loss (AID 1117352); assay type: functional
[27] = HCT116 cell viability decrease, GSK3B pretreatment – CellTiter-Glo, IC50, dose response (AID 1117339); assay type: functional; settings: HCT-116

## O=C(CSc1nnc(-c2cccnc2)n1C1CCCCC1)NC1CCCCC1
[1]
  EC50: 40 nM (not active)

## Cc1ccc2nc(O)c(CN(CCCN(C)C)C(=O)Nc3ccc(Cl)cc3)cc2c1
Vero
  IC50: 17800 nM (active)

## Cc1ccc(NC(=O)NCC2CC2(Cl)Cl)cc1 (stereo not drawn)
[2]
  EC50: > 12000 nM (not active)
[3]
  EC50: 226 nM (active)
H4
  EC50: 8760 nM (active)
[4]
  EC50: 399 nM (active)
[5]
  EC50: 2170 nM (active)
[6]
  EC50: 1720 nM (active)

## COc1ccc(-c2ccccc2[C@@H]2[C@H](C#N)N(C(=O)C3CCCC3)[C@H]2CO)cc1
[7]
  AC50: 19100 nM (active)

## CCN1C(=S)SC(=O)C1=C1C=C(C)N(Cc2ccco2)C(C)=C1
[2]
  EC50: 313 nM (active)
H4
  EC50: < 100 nM (active)
[8]
  EC50: > 195000 nM (not active)
[4]
  EC50: 263 nM (active)
Oxytocin receptor
  EC50: 16700 nM (not active)
Vasopressin V1a receptor
  EC50: 10500 nM (not active)
[6]
  EC50: 287 nM (active)

## Cc1ccc(S(=O)(=O)NC(=O)NN2CC3CCCC3C2)cc1 (stereo not drawn) [GLICLAZIDE]
[9]
  IC50: > 10000 nM (inactive)
[10]
  IC50: 1830 nM (active)
cells
  IC50: > 33300 nM (inactive)
[11]
  IC50: > 10000 nM (inactive)

## O=C1c2c(O)ccc(O)c2C(=O)c2c(NCCNCCO)ccc(NCCNCCO)c21 [MITOXANTRONE HYDROCHLORIDE]
[12]
  IC50: 37900 nM (inactive)
Nonstructural protein 1
  IC50: 1100 nM (active)
[13]
  AC50: 9510 nM (active)
[14]
  AC50: 658 nM (active)
P388/ADR
  GI50: 22.2 nM (active)
[15]
  AC50: 535 nM (active)
[16]
  AC50: 33600 nM (active)
SN12K1
  GI50: 5.3 nM (active)
P388
  GI50: 3.55 nM (active)
[17]
  IC50: 14800 nM (active)
[18]
  AC50: < 150 nM (active)
Paired box protein Pax-8
  AC50: 690 nM (active)
[19]
  IC50: > 122000 nM (inactive)
[9]
  IC50: > 10000 nM (inactive)
[20]
  IC50: 1830 nM (active)
[21]
  IC50: 1030 nM (active)
[22]
  IC50: 1230 nM (active)
[23]
  IC50: 1720 nM (active)
[24]
  CC50: < 80 nM (active)
[25]
  IC50: 3850 nM (active)
[11]
  IC50: > 10000 nM (inactive)
[26]
  IC50: 1600 nM (active)
[27]
  IC50: 1 nM (active)

Source: ChEMBL document CHEMBL1201862, “PubChem BioAssay data set” (2004)
